Columns and labels:
Type in all cases: in vivo, mouse
Oprm1^−/− mice [1] = assay: Marble-burying
Procedure: (§1) Mice were treated with vehicle (NaCl 0.9%; ip, 10 or 20 ml/kg), NaBr (Sigma-Aldrich, Saint-Quentin Fallavier, France) administered either chronically (once a day, 10, 30, 70, 125, 250 and 500 mg/kg; i.p. or per os, in a volume of 20 ml/kg—except for combination with VU0155041: […]) or acutely (250 mg/kg, 20 ml/kg), KBr (Sigma-Aldrich, Saint-Quentin Fallavier, France; 145 mg/kg; i.p., 20 ml/kg), bumetanide (R&D systems, Minneapolis, USA, 0.5 and 2 mg/kg; i.p., 20 ml/kg) or VU0155041 (Cayman Chemicals, Ann Arbor, USA, once a day, i.p., 1 mg/kg, 10 ml/kg). […] When treatment was given chronically, behavioral testing started 8 days after beginning of daily administration. Treatment was maintained for 8 to 18 consecutive days (see timelines in FIGS. 1 and 4), allowing thorough behavioral phenotyping. On testing days, or when treatment was given acutely, drugs (or vehicle) were administered 30 min before behavioral assays.
Marble-burying. Marble burying was used as a measure of perseverative behavior (68). Mice were introduced individually in transparent cages (21×11×17 cm) containing 20 glass marbles (diameter: 1.5 cm) evenly spaced on 4-cm deep fresh sawdust. To prevent escapes, each cage was covered with a filtering lid. Light intensity in the room was set at 40 lux. The animals were removed from the cages after 15 min, and the number of marbles buried more than half in sawdust was quoted.

Oprm1^−/− mice [2] = assay: Novelty-suppressed feeding
Procedure: as §1
(§2) Novelty-suppressed feeding. Novelty-suppressed feeding (NSF) was measured in 24-hr food-deprived mice, isolated in a standard housing cage for 30 min before individual testing. Three pellets of ordinary lab chow were placed on a white tissue in the center of each arena, lit at 60 lx. Each mouse was placed in a corner of an arena and allowed to explore for a maximum of 15 min. Latency to feed was measured as the time necessary to bite a food pellet. Immediately after an eating event, the mouse was transferred back to home cage (free from cage-mates) and allowed to feed on lab chow for 5 min. Food consumption in the home cage was measured.

Oprm1^−/− mice [3] = assay: Direct social interaction test
Procedure: as §1
When assessing effects of chronic administration, experiments were performed successively (timelines in FIGS. 1 and 4) (51, 60). Testing order was chosen to minimize the incidence of anxiety on later assays. Direct social interaction and novelty suppressed feeding were performed in 4 equal square arenas (open fields, 50×50 cm) separated by 35 cm-high opaque grey Plexiglas walls over a white Plexiglas platform (View Point, Lyon, France). Stimulus mice used for the three-chamber test were 8-14-week-old grouped-housed male or female wild-type mice, socially naive to the experimental animals.
Direct social interaction test. On testing day, a pair of unfamiliar mice (not cage mates, age-, sex- and treatment-matched) was introduced in each arena for 10 min (15 lx). Each arena received a black plastic floor (transparent to infrared). […] The mean duration of nose and paw contacts was calculated from previous data (61-63).

Shank3^Δex13-16−/− mice = assay: Novelty-suppressed feeding; conditions: Shank3Δex13-16−/− mice; chronic NaBr 250 mg/kg once daily
Procedure: as §1, §2
(§3) To this purpose, we evaluated the effects of chronic NaBr administration at the dose of 250 mg/kg on autism-sensitive behaviors in these lines (FIG. 3A).

Fmr1^−/− mice = assay: Novelty-suppressed feeding; conditions: chronic NaBr 250 mg/kg once daily
Procedure: as §1, §2, §3

[4] = Oprm1−/− mice, chronic once daily, NaBr 10-500 mg/kg (effect from 125 mg/kg) or bumetanide 0.5 and 2 mg/kg, D9
[5] = Oprm1−/− mice, one week after cessation of chronic treatment (NaBr over 70 mg/kg, highest doses; bumetanide depending on the dose)

For `[Br-].[Na+]` [NaBr, sodium bromide], the excessive marble burying (Oprm1^−/− mice [1]; Oprm1−/− mice, chronic NaBr 10-500 mg/kg or bumetanide 0.5 and 2 mg/kg) was “did not suppressed excessive burying in mutant mice”, the “number of buried marbles, global treatment effect” value (Oprm1^−/− mice [1]; both mouse lines, chronic NaBr) was “globally increased burying” and the latency to feed (Oprm1^−/− mice [2]; Oprm1−/− mice, chronic NaBr 70 mg/kg) was “sufficient to normalize latency to feed”. The latency to eat (Oprm1^−/− mice [2]; Oprm1−/− mice, chronic NaBr (since the lowest dose tested) or bumetanide) was “normalized eating latency”, the food intake (Oprm1^−/− mice [2]; both mouse lines, chronic NaBr (since the lowest dose tested) or bumetanide) was “increased food intake in both mouse lines” and the “social interaction in wild-type controls” value (Oprm1^−/− mice [3]; Oprm1+/+ mice, chronic once daily, NaBr 10-500 mg/kg or bumetanide 0.5 and 2 mg/kg) was “had no detectable effect in Oprm1^+/+ mice”. For the same molecule, the “social interaction behavioral parameters” value (Oprm1^−/− mice [3]; Oprm1−/− mice, NaBr 70 mg/kg, VU0155041 1 mg/kg, alone or combined, once daily, chronic) was “had no detectable effects on behavioral parameters”, the social interaction deficit (Oprm1^−/− mice [3]; Oprm1−/− mice, chronic once daily i.p., NaBr 10-500 mg/kg or bumetanide 0.5 and 2 mg/kg, D9) was “from the dose of 125 mg/kg dose-dependently relieved this deficit” and the “number of nose contacts” value (Oprm1^−/− mice [3]; Oprm1−/− mice, chronic once daily, NaBr 10-500 mg/kg (effect from 125 mg/kg) or bumetanide 0.5 and 2 mg/kg (effect at low dose), D9) was “restored number”. For the same molecule, the “mean duration of nose contacts” value (Oprm1^−/− mice [3]; [4]) was “restored”, the “mean duration of paw contacts” value (Oprm1^−/− mice [3]; [4]) was “normalized” and the “number of paw contacts” value (Oprm1^−/− mice [3]; [4]) was “normalized number”. The “grooming after social contact” value (Oprm1^−/− mice [3]; Oprm1−/− mice, chronic once daily, NaBr 10-500 mg/kg or bumetanide 0.5 and 2 mg/kg, D9) was “normalized the frequency of grooming after social contact in mutants, since the dose of 70 mg/kg”, the “duration of nose contacts” value (Oprm1^−/− mice [3]; [5]) was “preserved restoration of the duration of nose contacts” and the “grooming after social contact” value (Oprm1^−/− mice [3]; [5]) was “maintained suppression of grooming after social contact”. For the same molecule, the social interaction parameters (Oprm1^−/− mice [3]; Oprm1−/− mice, single acute injection of NaBr 250 mg/kg, data not shown) was “had little effect on social interaction parameters”, the “relieving effects on social interaction” value (Oprm1^−/− mice [3]; Oprm1−/− mice, two weeks after cessation of chronic NaBr, data not shown) was “had mostly vanished after two weeks” and the “number of following episodes” value (Oprm1^−/− mice [3]; chronic once daily, NaBr 10-500 mg/kg (both mouse lines) or bumetanide (at low dose), D9) was “increased the number of following episodes in both mouse lines”. The food intake (Shank3^Δex13-16−/− mice) was “had no effect on food intake”, the latency to eat (Shank3^Δex13-16−/− mice) was “normalized this latency to WT levels” and the food intake (Fmr1^−/− mice) was “no modification in their food intake”. For the same molecule, the latency to eat (Fmr1^−/− mice) was “reduced this latency”.
